Data: US10118936B2, “Arginase inhibitors and methods of use” (ASTRAZENECA AB, priority 2009, dated 2018)
“Also recorded” adds a separate entry of the source. Structures can show the parent of a compound that is named as a salt.

Assays:
[1] = molecular target: T1, human arginase I (hArgI) (Homo sapiens, UniProt P05089); assay: QuantiChrom colorimetric arginase inhibition assay, human arginase I; type: biochemical; details: IC50 from 12-concentration curve converted to Ki by Cheng-Prusoff equation
T1 sequence (P05089 1-322): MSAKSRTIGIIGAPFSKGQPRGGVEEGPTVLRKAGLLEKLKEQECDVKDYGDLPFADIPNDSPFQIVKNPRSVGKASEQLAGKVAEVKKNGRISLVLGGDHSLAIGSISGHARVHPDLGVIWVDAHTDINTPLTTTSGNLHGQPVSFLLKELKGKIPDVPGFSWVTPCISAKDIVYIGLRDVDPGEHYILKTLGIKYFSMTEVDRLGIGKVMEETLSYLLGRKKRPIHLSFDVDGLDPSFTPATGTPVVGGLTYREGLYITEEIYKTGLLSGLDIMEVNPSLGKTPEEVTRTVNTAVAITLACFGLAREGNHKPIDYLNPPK
Experimental: (§1) Quantitative determination of arginase activity was performed by a colorimetric method using the QuantiChrom™ Arginase Assay Kit available from BioAssay Systems (Hayward, Calif., Catalog No. DARG-200), which was used according to the manufacture's protocol. Briefly, the method utilizes a chromogen that forms a colored complex specifically with urea produced in the arginase reaction. […] The intensity of the color is directly proportional to the arginase activity in the sample.
(§2) The rate of urea production was measured in the presence of twelve different concentrations of each potential inhibitor compound. The half maximal inhibitory concentration (IC50) was determined by constructing a dose-response curve. As IC50 values are dependent upon the measurement conditions, the IC50 values are converted to the inhibitor binding affinity (Ki) using the Cheng-Prusoff equation and the measured affinity constant (Km) of L-arginine.

[2] = molecular target: T2, human arginase II (hArgII) (Homo sapiens, UniProt P78540); assay: QuantiChrom colorimetric arginase inhibition assay, human arginase II; type: biochemical; details: IC50 from 12-concentration curve converted to Ki by Cheng-Prusoff equation
T2 sequence (P78540 23-354): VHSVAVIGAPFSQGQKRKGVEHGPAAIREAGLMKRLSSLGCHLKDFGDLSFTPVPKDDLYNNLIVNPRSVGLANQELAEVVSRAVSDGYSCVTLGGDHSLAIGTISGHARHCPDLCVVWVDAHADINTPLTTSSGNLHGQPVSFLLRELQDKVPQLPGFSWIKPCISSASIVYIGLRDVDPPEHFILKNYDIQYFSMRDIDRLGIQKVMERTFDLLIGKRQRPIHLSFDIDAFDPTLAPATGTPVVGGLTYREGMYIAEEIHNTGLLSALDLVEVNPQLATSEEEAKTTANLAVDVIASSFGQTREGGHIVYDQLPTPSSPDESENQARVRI
Experimental: as §1, §2

[3] = system: arginase; assay: Arginase inhibition, potency comparisons (isoform not stated); type: biochemical, human; details: relative potency statements in text
Experimental: Quantitative determination of arginase activity was performed by a colorimetric method using the QuantiChrom™ Arginase Assay Kit available from BioAssay Systems (Hayward, Calif., Catalog No. DARG-200), which was used according to the manufacture's protocol. Briefly, the method utilizes a chromogen that forms a colored complex specifically with urea produced in the arginase reaction. See, Mellerup, “Colorimetric method for rapid determination of serum arginase,” Clin. Chem. 13, 900-08 (1967). The intensity of the color is directly proportional to the arginase activity in the sample.
The rate of urea production was measured in the presence of twelve different concentrations of each potential inhibitor compound. The half maximal inhibitory concentration (IC50) was determined by constructing a dose-response curve. As IC50 values are dependent upon the measurement conditions, the IC50 values are converted to the inhibitor binding affinity (Ki) using the Cheng-Prusoff equation and the measured affinity constant (Km) of L-arginine. See, e.g., Cheng et al., “Relationship between the inhibition constant (K1) and the concentration of inhibitor which causes 50 percent inhibition (I50) of an enzymatic reaction,” Biochem. Pharmacol. 22, 3099-108 (1973).
In Table 6, the Ki values reflect the potency of these molecules to inhibit the catalytic activity of arginase to produce urea from the substrate L-arginine. […] That is, racemic materials were compared to racemic controls. Thus, there are several examples that have similar potencies to Rac-ABH.
Shortening the alkyl chain by one carbon atom as in the phenoxyethyl compound 1ad also results in a potency loss. Thus, there appears to be definitive structure-activity features that results in increased potency at the molecular target, arginase, in these α,α-disubstituted derivatives.

[4] = cited from earlier work
[5] = system: rabbit and human penile corpus cavernosum; details: cited from earlier work
[6] = system: airway hyperresponsiveness; details: guinea pigs, allergic asthma model, nebulizer treatment; cited from earlier work
[7] = system: genitalia engorgement response; details: live female rabbits; cited from earlier work
[8] = system: opossum internal anal sphincter muscle; details: cited from earlier work
[9] = system: corpus cavernosum of the diabetic person; details: ex vivo; cited from earlier work
[10] = system: experimental autoimmune encephalomyelitis; details: cited from earlier work
[11] = system: erectile response; details: live male rabbits; cited from earlier work
[12] = system: microvasculature; details: subcutaneous administration in humans; cited from earlier work

Row | Molecule | Ki [1] [µM] | Ki [2] [µM] | further results
1 | NC(CCCCB(O)O)(CCCCc1ccccc1)C(=O)O (stereo not shown) [Compound 1e, 2-Amino-6-borono-2-(4-phenylbutyl)hexanoic acid] | 0.01 to 0.1 | 0.01 to 0.1 | –
2 | CCC(=O)CC(N)(CCCCB(O)O)C(=O)O (stereo not shown) [Compound 1aw, 2-Amino-6-borono-2-(2-oxobutyl)hexanoic acid hydrochloride] | 0.01 to 0.1 | 0.01 to 0.1 | –
3 | Cl.NC(CCCCB(O)O)(CCCOc1ccccc1)C(=O)O (stereo not shown) [Compound 1d, 2-Amino-6-(borono-2-(3-phenoxypropyl)hexanoic acid hydrochloride] | 0.0001 to 0.01 | 0.0001 to 0.01 | –
4 | N=C(NO)NCC[C@H](N)C(=O)O [Nor-NOHA, N^ω-hydroxy-nor-1-arginine, reference compound] | – | 0.1 to 0.5 | –
5 | Cl.NC(CCCCB(O)O)(CCCOc1ccccc1)C(=O)O (stereo not shown) [Compound 1d] | – | – | potency as arginase inhibitor, compared in words [3]: as potent as Rac-ABH
6 | NC(CCCCB(O)O)(CCOc1cccc(Cl)c1)C(=O)O (stereo not shown) [Compound 1ad, 2-Amino-6-borono-2-(2-(3-chlorophenoxy)ethyl)hexanoic acid] | 0.01 to 0.1 | 0.01 to 0.1 | potency as arginase inhibitor, compared in words [3]: potency loss
7 | Cl.NC(CCCO)(CCCCB(O)O)C(=O)O (stereo not shown) [Compound 1ak, 2-Amino-6-borono-2-(3-hydroxypropyl)hexanoic acid hydrochloride] | – | – | potency as arginase inhibitor, compared in words [3]: less potent
8 | NC(CCCCB(O)O)(CCCOc1ccc(F)cc1)C(=O)O (stereo not shown) [Compound 1h, 2-Amino-6-borono-2-(3-(4-fluorophenoxy)propyl)hexanoic acid] | 0.0001 to 0.01 | 0.01 to 0.1 | –
9 | N#Cc1ccc(C(=O)NCCOCCC(N)(CCCCB(O)O)C(=O)O)cc1 (stereo not shown) [Compound 38a, 2-Amino-6-borono-2-(2-(2-(4-cyanobenzamid)ethoxy)ethyl)hexanoic acid trifluoroacetate] | 0.01 to 0.1 | 0.01 to 0.1 | –
10 | NC(CCCCB(O)O)(CC(=O)c1ccccc1)C(=O)O (stereo not shown) [Compound 1ax, 2-Amino-6-borono-2-(2-oxo-2-phenylethyl)hexanoic acid hydrochloride] | 0.01 to 0.1 | 0.01 to 0.1 | –
11 | O=C1CCc2ccccc2O1 [dihydrocoumarin] | – | – | half-life ([4]; 37° C. in the stomach): about 1 hour
12 | N[C@@H](CCCCB(O)O)C(=O)O [ABH, 2(S)-amino-6-borono-hexanoic acid] | 0.0001 to 0.01 | 0.0001 to 0.01 | NO-dependent relaxation of corpus cavernosum [5]: enhances the NO-dependent relaxation of this tissue; airway hyperresponsiveness [6]: prevents airway hyperresponsiveness; engorgement response in the genitalia [7]: enhances the engorgement response in the genitalia of live female rabbits; relaxation of internal anal sphincter muscle [8]: relax this muscle; NO biosynthesis [9]: restores NO biosynthesis; disease score [10]: improves the disease score of animals; erectile response [11]: enhances the erectile response in live male rabbits
13 | N[C@](CO)(CCCCB(O)O)C(=O)O (single isomer, unassigned) [Compound 1as] | 0.1 to 0.5 | 0.1 to 0.5 | –
14 | COc1cccc(NC(=O)NCCOCCC(N)(CCCCB(O)O)C(=O)O)c1 (stereo not shown) [Compound 39a, 2-Amino-6-borono-2-(2-(2-(3-(3-methoxyphenyl)ureido)ethoxy)ethyl)hexanoic acid] | 0.01 to 0.1 | 0.01 to 0.1 | –
15 | CC[C@H](C)C(=O)O[C@H]1C[C@@H](C)C=C2C=C[C@H](C)[C@H](CC[C@@H]3C[C@@H](O)CC(=O)O3)[C@H]21 [lovastatin, reference compound] | – | – | half-life of lactone hydrolysis ([4]; gastric pH and temperature): about 1 hour
16 | Cc1ccc(S(=O)(=O)NCCCCC(N)(CCCCB(O)O)C(=O)O)cc1 (stereo not shown) [Compound 40a, 2-Amino-6-borono-2-(4-(4-methylphenylsulfonamido)butyl)hexanoic acid] | 0.01 to 0.1 | 0.01 to 0.1 | –
17 | S-(2-boronoethyl)-1-cysteine [BEC] | – | – | vasodilation and circulation [12]: vasodilatory and enhances circulation

More lines, main results first:

Row | Ki [1] [µM] | Ki [2] [µM] | Molecule | further results
18 | 0.01 to 0.1 | 0.01 to 0.1 | Cl.NC(CCCCB(O)O)(CCOCc1ccccc1)C(=O)O (stereo not shown) [Compound 1aa, 2-Amino-2-(benzyloxyethyl)-6-boronohexanoic acid hydrochloride] | potency as arginase inhibitor, compared in words [3]: potency is lost
19 | 0.1 to 0.5 | 0.1 to 0.5 | NC(CCCCB(O)O)(Cc1ccccc1)C(=O)O (stereo not shown) [Compound 1a, 2-Amino-2-benzyl-6-boronohexanoic acid hydrochloride] | –
20 | 0.0001 to 0.01 | 0.01 to 0.1 | NC(CCCCB(O)O)C(=O)O (racemic) [Rac-ABH, reference compound] | –
21 | 0.0001 to 0.01 | 0.0001 to 0.01 | NCCCCC(N)(CCCCB(O)O)C(=O)O (stereo not shown) [Compound 1bb, 2,6-Diamino-2-(4-boronobutyl)hexanoic acid] | –
22 | 0.1 to 0.5 | 0.1 to 0.5 | CC(=O)NCCOCCC(N)(CCCCB(O)O)C(=O)O (stereo not shown) [Compound 38b, 2-(2-(2-Acetamidoethoxy)ethyl)-2-amino-6-boronohexanoic acid] | –
23 | 0.0001 to 0.01 | 0.0001 to 0.01 | N[C@@](CO)(CCCCB(O)O)C(=O)O (single isomer, unassigned) [Compound 1ar] | potency as arginase inhibitor, compared in words [3]: most potency as an arginase inhibitor by two orders of magnitude compared to compound 1as; also recorded: as potent as ABH; also recorded: almost two orders of magnitude) more potent than the other enantiomer
24 | 0.01 to 0.1 | 0.01 to 0.1 | CC(C)CC(N)(CCCCB(O)O)C(=O)O (stereo not shown) [Compound 1ap, 2-Amino-6-borono-2-isobutylhexanoic acid hydrochloride] | –
25 | 0.0001 to 0.01 | 0.01 to 0.1 | CC(N)(CCCCB(O)O)C(=O)O (stereo not shown) [Compound 1ao, 2-Amino-6-borono-2-methylhexanoic acid hydrochloride] | –
26 | 0.01 to 0.1 | 0.01 to 0.1 | NC(CCCCB(O)O)(CCCN1CCNCC1)C(=O)O (stereo not shown) [Compound 1ba] | –
27 | 0.0001 to 0.01 | 0.01 to 0.1 | NC(CO)(CCCCB(O)O)C(=O)O (stereo not shown) [Compound 1aq, 2-Amino-6-borono-2-(hydroxymethyl)hexanoic acid hydrochloride] | –
28 | 0.0001 to 0.01 | 0.0001 to 0.01 | NC(CCCCB(O)O)(CCCC1CCNCC1)C(=O)O (stereo not shown) [Compound 1az, 2-Amino-6-borono-2-(3-(piperidin-4-yl)propyl)hexanoic acid] | –
29 | 0.01 to 0.1 | 0.01 to 0.1 | COc1cccc(NC(=O)N2CCN(CCCC(N)(CCCCB(O)O)C(=O)O)CC2)c1 (stereo not shown) [Compound 39c, 2-Amino-6-borono-2-(3-(4-(3-methoxyphenylcarbamoyl)piperazin-1-yl)propyl)hexanoic acid] | –
30 | 0.1 to 0.5 | 0.1 to 0.5 | CC(N)(CCNC(N)=NO)C(=O)O (stereo not shown) [Compound 54a, 2-Amino-4-(2-hydroxyguanidino)-2-methylbutanoic acid dihydrochloride] | –
